Consider 13 molecules from patent US20260174878A1, “IRAK4 DEGRADATION AGENT AND USE THEREOF” (LEADINGTAC PHARMACEUTICAL (SHAOXING) CO., LTD., priority 2022, published 2026).

Experiment [1] addresses T1, IRAK4 protein in normal human PBMCs (Homo sapiens, UniProt Q9NWZ3).
T1 construct: host or cells: normal human PBMCs
T1 sequence (Q9NWZ3 1-460): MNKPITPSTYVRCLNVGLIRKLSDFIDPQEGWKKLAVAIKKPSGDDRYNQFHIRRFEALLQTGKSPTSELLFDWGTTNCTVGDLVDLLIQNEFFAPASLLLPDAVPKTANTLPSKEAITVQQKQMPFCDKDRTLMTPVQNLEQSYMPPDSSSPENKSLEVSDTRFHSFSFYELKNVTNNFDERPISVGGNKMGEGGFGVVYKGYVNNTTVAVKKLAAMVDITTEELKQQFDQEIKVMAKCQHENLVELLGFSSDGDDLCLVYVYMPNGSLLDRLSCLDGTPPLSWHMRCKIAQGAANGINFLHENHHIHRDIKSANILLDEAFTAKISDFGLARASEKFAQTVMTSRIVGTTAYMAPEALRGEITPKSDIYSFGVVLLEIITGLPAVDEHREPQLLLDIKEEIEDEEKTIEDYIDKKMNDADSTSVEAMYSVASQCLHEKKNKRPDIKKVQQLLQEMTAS
Briefly: Degradation of IRAK4 protein in normal human PBMCs (AlphaLISA). Format: cell-based. The following applies: 24 h incubation. A digest of the protocol: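 Cryopreserved normal human PBMCs treated with compound at 0.01-3000 nM (0.25% DMSO) for 24 h at 37 °C. IRAK4 in lysates quantified by AlphaLISA against a standard curve and normalized to BCA total protein. Degradation versus control fitted to give DC50 and Dmax.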

In the next experiment the target is T2, IRAK4 kinase (Homo sapiens, UniProt Q9NWZ3).
T2 construct: purchased Carna
T2 sequence (Q9NWZ3 1-460): T1 sequence (Q9NWZ3 1-460)
Briefly: IRAK4 kinase activity test (KinEASE-STK S1 HTRF kit). Format: biochemical. The following applies: IRAK4 kinase 2.5 nM, 7 μM adenosine triphosphate, 37° C. 120 min. As to the method: Then 2.5 nM IRAK4 kinase (Carna), 1 μM biotinylated polypeptide substrate (Cisbio), and 7 μM adenosine triphosphate (Sigma-Aldrich) were sequentially added, and the mixtures were incubated at 37° C. for 120 min. Subsequently, an anti-phosphoserine/threonine antibody (Cisbio) conjugated with a europium element compound and streptavidin conjugated with a modified XL665 (Cisbio) were added to the reaction system to stop the reaction. After 1 h of incubation at room temperature, the fluorescence intensity of each well was measured at the excitation wavelength of 337 nm and the emission wavelengths of 620 nm and 665 nm with a microplate reader EnVision (PerkinElmer) in the HTRF mode, and Ratio values were calculated using the formula: Ratio=(665 nm/620 nm)×10^4. The inhibition rates of the compounds at each concentration were calculated by comparison with the fluorescence intensity ratio of the control group. Then non-linear curve fittings for logarithmic concentration-inhibition rate were performed using GraphPad Prism 7, and the IC50 values of the compounds were obtained.
On the technique in general: In TR-FRET formats the signal depends on donor and acceptor labels being close together.

In experiment [2] the test system is imiquimod-induced mouse psoriasis model. Briefly: Imiquimod-induced C57 mouse psoriasis model. Format: in vivo, C57BL/6 mice. The conditions noted are these: p<0.0001. As to the method:
Then 10% of the total volume of Solutol was added, and the mixture was subjected to vortex ultrasonic treatment until clear. […] The compound was formulated fresh for each use.
B. Imiquimod sensitization and drug intervention on C57BL/6J mice were conducted, with specific administration times shown in Table 6. • i. On Day 1, the backs of the mice were shaved, ensuring consistent area using a mold, approximately 2 cm×3 cm, and 60 mice were selected; • ii. the mice were randomly divided into 6 groups based on body weight and right ear thickness, with 10 mice per group; • iii. 6 to induce psoriasis symptoms in the model mice, imiquimod was applied on the back skin and right ear of the mice in groups G2-G6 for sensitization at noon on Day 0, and this continued for 7 days. • iv. […] Endpoint sampling of the mice was performed on Day 5 or Day 7.
• Clinical score and right ear thickness.

The structures appear in SMILES notation. pIC50: −log10 of the molar value.

The DC50 is the concentration giving 50% degradation. Low values mean degradation at low concentration, high ones degradation only at high concentration. Broadly, the Dmax is the largest share of the target that was removed. The low end stands for shallow degradation, the high end for deep degradation. What is called pIC50 is the negative decadic logarithm of the IC50, by convention in mol/L. Lower therefore signals a high IC50.

Regarding `COc1ccc(C(=O)N2CCC(CCN(C)C[C@H]3CC[C@H](n4cc(NC(=O)c5cnn6ccc(N7CCC[C@H](O)C7)nc56)c(C(F)F)n4)CC3)CC2)cc1N1CCC(=O)NC1=O` [Example 14, N-(3-(difluoromethyl)-1-((1R,4S)-4-(((2-(1-(3-(2,4-dioxotetrahydropyrimidin-1(2H)-yl)-4-methoxybenzoyl)piperidin-4-yl)ethyl)(methyl)amino)methyl)cyclohexyl)-1H-pyrazol-4-yl)-5-((S)-3-hydroxypiperidin-1-yl)pyrazolo[1,5-a]pyrimidine-3-carboxamide], in experiment [1], the DC50 worked out at 0.27 nM and the Dmax was determined as 98.2%. The same molecule had a pIC50 at IRAK4 kinase of 8.47.

In experiment [1], `COc1ccc(C(=O)N2CCC(CCN(C)C[C@H]3CC[C@H](n4cc(NC(=O)c5cnn6ccc(N7CC8(COC8)C7)nc56)c(C(F)F)n4)CC3)CC2)cc1N1CCC(=O)NC1=O` [Example 32, N-(3-(difluoromethyl)-1-((1R,4R)-4-(((2-(1-(3-(2,4-dioxotetrahydropyrimidin-1(2H)-yl)-4-methoxybenzoyl)piperidin-4-yl)ethyl)(methyl)amino)methyl)cyclohexyl)-1H-pyrazol-4-yl)-5-(2-oxa-6-azaspiro[3.3]heptan-6-yl)pyrazolo[1,5-a]pyrimidine-3-carboxamide] returned a half-maximal degradation concentration (DC50) of 1.11 nM and a maximal degradation (Dmax) of 98.1%. The pIC50 at IRAK4 kinase is 7.77.

Take `COc1ccc(C(=O)N2CCC(CCN(C)C[C@H]3CC[C@H](n4cc(NC(=O)c5cnn6ccc(N7CCC[C@H](N)C7)nc56)c(C(F)F)n4)CC3)CC2)cc1N1CCC(=O)NC1=O` [Example 15, 5-((S)-3-aminopiperidin-1-yl)-N-(3-(difluoromethyl)-1-((1R,4S)-4-(((2-(1-(3-(2,4-dioxotetrahydropyrimidin-1(2H)-yl)-4-methoxybenzoyl)piperidin-4-yl)ethyl)(methyl)amino)methyl)cyclohexyl)-1H-pyrazol-4-yl)pyrazolo[1,5-a]pyrimidine-3-carboxamide]: in experiment [1], half-maximal degradation (DC50) was put at 1.49 nM and the Dmax is 98.8%. On IRAK4 kinase, this molecule showed a negative logarithm of the IC50 (pIC50) of 8.41.

For the molecule `C=C1/C(=C\C=C2/CCC[C@]3(C)[C@@H]([C@H](C)CCCC(C)(C)O)CC[C@@H]23)C[C@@H](O)C[C@@H]1O` [calcitriol], the “inhibition rate relative to vehicle control (AUC of clinical score)” value in experiment [2] (ointment 75 mg back + 24 mg right ear/mouse topical QD) is on record as 44.5%.

On to `COc1cc2nn([C@H]3CC[C@@](COCCC4CCN(C(=O)c5ccc(Cl)c(N6CCC(=O)NC6=O)c5)CC4)(OC)CC3)cc2cc1NC(=O)c1cccc(C(F)(F)F)n1` [Example 36], for which, in experiment [1], it took 2.03 nM to reach half-maximal degradation (DC50) and the Dmax was 98.6%. Besides, the negative logarithm of the IC50 (pIC50) against IRAK4 kinase is 8.03.

In experiment [1], `COc1cc2nn([C@H]3CC[C@](O)(COCCC4CCN(C(=O)c5ccc(Cl)c(N6CCC(=O)NC6=O)c5)CC4)CC3)cc2cc1NC(=O)c1cccc(C(F)(F)F)n1` [Example 34] showed a 50% degradation concentration (DC50) of 1.32 nM and a Dmax of 99.1%. Also, the pIC50 against IRAK4 kinase was 7.89.

In experiment [1], `CN(CCC1CCN(C(=O)c2ccc(Cl)c(N3CCC(=O)NC3=O)c2)CC1)C[C@H]1CC[C@H](n2cc(NC(=O)c3cnn4ccc(N5CCOCC5)nc34)c(C(F)F)n2)CC1` [Example 9, N-(1-((1R,4R)-4-(((2-(1-(4-chloro-3-(2,4-dioxotetrahydropyrimidin-1(2H)-yl)benzoyl)piperidin-4-yl)ethyl)(methyl)amino)methyl)cyclohexyl)-3-(difluoromethyl)-1H-pyrazol-4-yl)-5-morpholinopyrazolo [1,5-a]pyrimidine-3-carboxamide] displayed a half-maximal degradation concentration (DC50) of 0.39 nM and a Dmax of 98%. This molecule had a pIC50 against IRAK4 kinase of 8.33.

In experiment [1], `O=C1CCN(c2cc(C(=O)N3CCC4(CCN(C[C@H]5CC[C@H](n6cc(NC(=O)c7cnn8ccc(N9CCOCC9)nc78)c(C(F)F)n6)CC5)CC4)CC3)ccc2Cl)C(=O)N1` [Example 8, N-(1-((1R,4R)-4-((9-(4-chloro-3-(2,4-dioxotetrahydropyrimidin-1(2H)-yl)benzoyl)-3,9-diazaspiro [5.5]undecan-3-yl)methyl)cyclohexyl)-3-(difluoromethyl)-1H-pyrazol-4-yl)-5-morpholinopyrazolo[1,5-a]pyrimidine-3-carboxamide] registered a DC50 of 0.8 nM and a Dmax of 99.1%. This molecule also had a pIC50 on IRAK4 kinase of 7.77.

In experiment [1], `O=C1CCN(c2cc(C(=O)N3CCC4(CCN(C[C@H]5CC[C@H](n6cc(NC(=O)c7cnn8ccc(N9CC%10(COC%10)C9)nc78)c(C(F)F)n6)CC5)CC4)CC3)ccc2Cl)C(=O)N1` [Example 19, N-(1-((1R,4R)-4-((9-(4-chloro-3-(2,4-dioxotetrahydropyrimidin-1(2H)-yl)benzoyl)-3,9-diazaspiro[5.5]undecan-3-yl)methyl)cyclohexyl)-3-(difluoromethyl)-1H-pyrazol-4-yl)-5-(2-oxa-6-azaspiro[3.3]heptan-6-yl)pyrazolo[1,5-a]pyrimidine-3-carboxamide] came in with a half-maximal degradation concentration (DC50) of 0.47 nM and a Dmax of 98%. The molecule also showed a pIC50 against IRAK4 kinase of 7.44.

Regarding `CN(CCC1CCN(C(=O)c2ccc(F)c(C3CCC(=O)NC3=O)c2)CC1)C(=O)[C@H]1CC[C@H](n2cc(NC(=O)c3cnn4ccc(N5CCOCC5)nc34)c(C(F)F)n2)CC1` (some centres unmarked) [Example 17], in experiment [1], the half-maximal degradation concentration (DC50) stood at 0.92 nM and the Dmax came to 98.9%. Also, at IRAK4 kinase, the negative logarithm of the IC50 (pIC50) is 8.01.

Take `CC(=O)OCC(=O)[C@@]1(O)[C@H](C)C[C@H]2[C@@H]3CCC4=CC(=O)C=C[C@]4(C)[C@@]3(F)[C@@H](O)C[C@@]21C` [dexamethasone, Dexamethasone acetate]: in experiment [2] (5 mpk p.o. QD), the “inhibition rate relative to vehicle control (AUC of clinical score)” value stood at 20.7%.

On to `Cc1ccc(C(=O)N2CCC3(CCN(C[C@H]4CC[C@H](n5cc(NC(=O)c6cnn7ccc(N8CCC[C@H](O)C8)nc67)c(C(F)F)n5)CC4)CC3)CC2)cc1N1CCC(=O)NC1=O` [Example 27, N-(3-(difluoromethyl)-1-((1R,4S)-4-((9-(3-(2,4-dioxotetrahydropyrimidin-1(2H)-yl)-4-methylbenzoyl)-3,9-diazaspiro[5.5]undecan-3-yl)methyl)cyclohexyl)-1H-pyrazol-4-yl)-5-((S)-3-hydroxypiperidin-1-yl)pyrazolo[1,5-a]pyrimidine-3-carboxamide], for which, in experiment [1], half-maximal degradation (DC50) was put at 0.28 nM and the Dmax was 97.8%. The negative-log IC50 (pIC50) on IRAK4 kinase is 8.53.

Consider `O=C1CCN(c2cc(C(=O)N3CCC4(CCN(C[C@H]5CC[C@H](n6cc(NC(=O)c7cnn8ccc(N9CC%10CCC(C9)O%10)nc78)c(C(F)F)n6)CC5)CC4)CC3)ccc2Cl)C(=O)N1` [Example 11, 5-(8-oxa-3-azabicyclo[3.2.1]octan-3-yl)-N-(1-((1R,4R)-4-((9-(4-chloro-3-(2,4-dioxotetrahydropyrimidin-1(2H)-yl)benzoyl)-3,9-diazaspiro[5.5]undecan-3-yl)methyl)cyclohexyl)-3-(difluoromethyl)-1H-pyrazol-4-yl)pyrazolo[1,5-a]pyrimidine-3-carboxamide], for which, in experiment [1], half-maximal degradation (DC50) was put at 0.88 nM and the Dmax came to 97.4%. Moreover, the negative-log IC50 (pIC50) against IRAK4 kinase was 8.11.
